Laboratory results published in patent US20120245031A1, “Pesticidal Mixtures” (BASF SE, priority 2009, published 2012).

Columns and labels:
Type in all cases: in vivo
[1] = test system: potted imidazolinone tolerant wheat, variety ‘BW755’; assay: Greenhouse pot trial, total shoot biomass (dry weight) of wheat, fluxapyroxad / imazethapyr (Example 4); conditions: solo; for Shoot dry weight: 7 days after the last treatment; for Observed efficacy: increase of biomass vs untreated control
Description: (§1) Wheat was grown in 2010 in the greenhouse at the agricultural center at Limburgerhof, Germany. The imidazolinone tolerant variety ‘BW755’ was planted in pots. The trial was setup with 8 replications with one pot 10 plants each per replication.
(§2) The active ingredients were used as formulations. The formulations were used in the product rates given below and in table 6. The products were applied in a total spray volume of 375 l/ha. Products were diluted in water. The spray solution was applied in a spray cabinet using a spray boom with flat fan nozzles.
Imazethapyr was applied once as PIVOT 100 SL™ (100 g active per liter soluble concentrate) when the wheat plants had the first leaf fully developed (BBCH 11). Fluxapyroxd was applied once as an experimental emulsion concentrate (62.5 g active ingredient per liter) when 2 to 3 leaves were fully developed (BBCH 12/13). The application of the mixture was applied as a sequence of PIVOT 100 SL™ at the stage when the first leave had developed and while the fluxapyroxad formulation was applied when 2-3 leaves had developed.
(§3) Total shoot biomass was assessed (table 6) by harvesting all plants of a pot 7 days after the last treatment (expressed as g per pot). Dry weight of total shoot biomass per pot was evaluated. After measuring fresh weight, the samples were dried in a drying cabinet at 65° C. for two days. The efficacy was calculated as % increase of biomass in the treatments compared to the untreated control:
(§4) a corresponds to the biomass of the treated plants in g/pot and b corresponds to the biomass of the untreated (control) plants in g/pot

[2] = test system: wheat plants of the imidazolinone tolerant variety ‘BW755’; assay: Transpiration (water loss) of cut wheat plants as indicator of drought tolerance, fluxapyroxad / imazethapyr (Example 3); conditions: for Mean water loss / Observed efficacy: solo; for Mean water loss: 24 h; for Observed efficacy: decrease of water loss vs control
Description: (§5) The transpiration as an indicatior of drought tolerance of wheat plants treated or not treated with fluxapyroxad solo, imazethapyr solo, and mixtures thereof was assessed. 10 to 14 days old wheat plants were cut above the ground and placed into Eppendorf caps containing 2.2 ml of the test solution. The wheat plants were incubated for 24 h at 25° C. and 50% relative humidity in a growth chamber. The weight of the Eppendorf cap including the test solution but excluding the leaves was assessed before and after incubation. The difference in weight was recorded as the loss of water through transpiration. This assay is generally used to asses the drought tolerance of plants.
(§6) In the present example wheat plants of the imidazolinone tolerant variety ‘BW755’ were grown at 18° C. for 10 days in the greenhouse prior to the treatment and the incubation. 10 plants per treatment were treated and incubated as described. Fluxapyroxad and imazethapyr were dissolved in 0.5% DMSO. The 0.5% DMSO solution consisted of 0.5% DMSO dissolved in water. The tested concentrations are as described in table 4. Control plants were treated with the blank 0.5% DMSO solution only.
The efficacy of the tested compounds and mixtures was calculated as % of water loss compared to the control: […]
(§7) a corresponds to water loss of plants after incubation in the treated plants in g and b corresponds to water loss of plants after incubation in the control in g.

[3] = test system: wheat plants of the imidazolinone tolerant variety ‘BW755’; assay: Transpiration (water loss) of cut wheat plants as indicator for drought tolerance, fluxapyroxad / imazamox (Example 1); conditions: solo; for Mean water loss: 24 h at 25° C.; for Observed efficacy: decrease of water loss vs control, 24 h
Description: as §5, with “transpiration” for “transpiration as an indicatior of drought tolerance”, “solo, imazamox” for “solo, imazethapyr”, “was assessed as an indicator for drought tolerance.” for “was assessed.”, “the plant” for “the leaves”, “weight is” for “weight was”, “assay can be” for “assay is generally”
as §6, with “imazamox” for “imazethapyr”, “are” for “are as”, “2.” for “4.”
The efficacy of the tested compounds and respective mixtures was calculated as % of water loss compared to the control: […]
as §7

[4] = test system: potted imidazolinone tolerant wheat, variety ‘BW755’; assay: Greenhouse pot trial, total shoot biomass (dry weight) of wheat, fluxapyroxad / imazamox (Example 2); conditions: solo; for Shoot dry weight: 7 days following the last treatment; for Observed efficacy: increase of biomass vs untreated control
Description: as §1
as §2, with “3.” for “6.”
Imazamox was applied once as Raptor™ (120 g active per liter soluble concentrate) when the wheat plants had the first leaf fully developed (BBCH 11). Fluxapyroxd was applied once as an experimental emulsion concentrate (62.5 g active ingredient per liter) at 2 to 3 leaves fully developed (BBCH 12/13). The application of the mixture was carried out as a sequence, wherein Raptor™ was applied when the first leave had developed while the fluxapyroxad formulation was applied when 2-3 leaves had developed.
as §3, with “3)” for “6)”, “following” for “after”, “Afterwards, dry” for “Dry”
as §4

[5] = 1 ppm, first experiment (table 4)
[6] = 10 ppm, repeated experiment (table 5)
[7] = 500 ppm, first experiment (table 4)
[8] = 10 ppm, first experiment (table 4)
[9] = 50 ppm, first experiment (table 4)
[10] = 100 ppm, first experiment (table 4)
[11] = 100 ppm, repeated experiment (table 5)

CCc1cnc(C2=NC(C)(C(C)C)C(=O)N2)c(C(=O)O)c1 (stereo not shown) [Imazethapyr, imazethapyr]
reduction of dry biomass ([1]; 17.5 g imazethapyr per ha): about 1% | Shoot dry weight ([1]; 17.5 g/ha): 0.665 g/pot | Observed efficacy ([1]; 17.5 g/ha): −0.72% | reduction of dry biomass ([1]; 35 g imazethapyr per ha): about 9% | Shoot dry weight ([1]; 35 g/ha): 0.609 g/pot | Observed efficacy ([1]; 35 g/ha): −9.07% | Mean water loss [2, 5]: 1.249 g | Observed efficacy [2, 5]: −25.04% | Mean water loss [2, 6]: 1.435 g | Observed efficacy [2, 6]: −1.52% | Mean water loss [2, 7]: 0.878 g | Observed efficacy [2, 7]: 12.12% | effect on water loss, in words ([2]; alone at 10 ppm, second experiment, table 5): tended to be neutral

COCc1cnc(C2=NC(C)(C(C)C)C(=O)N2)c(C(=O)O)c1 (stereo not shown) [Imazamox, imazamox]
Mean water loss ([3]; 50 ppm): 0.907 g | Observed efficacy ([3]; 50 ppm): 5.92% | Mean water loss ([3]; 100 ppm): 0.855 g | Observed efficacy ([3]; 100 ppm): 11.32% | Mean water loss ([3]; 150 ppm): 1.001 g | Observed efficacy ([3]; 150 ppm): −3.88% | Shoot dry weight ([4]; 8.75 g/ha): 0.631 g/pot | Observed efficacy ([4]; 8.75 g/ha): 5.83% | Observed efficacy ([4]; 8.75 g/ha, listed as imazamox): about 6% | Shoot dry weight ([4]; 17.50 g/ha): 0.559 g/pot | Observed efficacy ([4]; 17.50 g/ha): −6.29% | reduction of dry biomass ([4]; 35 g imazamox per ha): about 14% | Shoot dry weight ([4]; 35.00 g/ha): 0.513 g/pot | Observed efficacy ([4]; 35.00 g/ha): −13.93%

Cn1cc(C(=O)Nc2ccccc2-c2cc(F)c(F)c(F)c2)c(C(F)F)n1 [Fluxapyroxad, N-(3′,4′,5′-trifluorobiphenyl-2-yl)-3-difluoromethyl-1-methyl-1H-pyrazole-4-carboxamide]
Shoot dry weight ([1]; 10 g/ha): 0.638 g/pot | Observed efficacy ([1]; 10 g/ha): −4.75% | Shoot dry weight ([1]; 50 g/ha): 0.617 g/pot | Observed efficacy ([1]; 50 g/ha): −7.88% | Shoot dry weight ([1]; 100 g/ha): 0.649 g/pot | Observed efficacy ([1]; 100 g/ha): −3.16% | Mean water loss ([3]; 50 ppm): 0.794 g | Observed efficacy ([3]; 50 ppm): 17.68% | Observed efficacy ([3]; 50 ppm, listed as fluxapyroxad): about 18% | Shoot dry weight ([4]; 10.00 g/ha): 0.619 g/pot | Observed efficacy ([4]; 10.00 g/ha): 3.80% | Shoot dry weight ([4]; 50.00 g/ha): 0.604 g/pot | Observed efficacy ([4]; 50.00 g/ha): 1.41% | Shoot dry weight ([4]; 100.00 g/ha): 0.604 g/pot | Observed efficacy ([4]; 100.00 g/ha): 1.30% | Mean water loss [2, 8]: 0.853 g | Mean water loss [2, 6]: 1.266 g | Observed efficacy [2, 8]: 14.59% | Observed efficacy [2, 6]: 10.46% | Mean water loss [2, 9]: 0.728 g | Observed efficacy [2, 9]: 27.16% | Mean water loss [2, 10]: 0.647 g | Mean water loss [2, 11]: 0.628 g | Observed efficacy [2, 10]: 35.22% | Observed efficacy [2, 11]: 55.60%
